Results reported in patent US20090053695A1, “Gene Marker and Use Thereof” (priority 2004, published 2009).

Test system: gene markers (Tap1 or Ctss)
Test: Temporal changes in blood expression levels of Tap1 and Ctss after heart transplantation (Example 5, FIG. 4)
Assay type: in vivo, rat
Details: s.c. daily dosing as in Example 2; blood mRNA to post-transplantation day 4, relative to pre-transplantation level (as 1)
Experimental: To precisely examine changes in the expression level of each of the genes selected here, their mRNAs were quantified. For Irf1, Psmb9, Nos2, and Pim1, the mRNA was quantified by using 25 ng of extracted mRNA together with each primer and probe shown in Table 1, synthesizing cDNA with TaqMan Reverse Transcription Reagents (manufactured by Applied Biosystems) under the conditions shown in Table 1, on an ABI PRISM 7900HT Detection System (manufactured by Applied Biosystems), and using β-actin as an internal control. For Tap1 and Ctss, mRNA was quantified by using 25 ng of extracted mRNA together with each primer and probe (final concentrations: […] each primer, 250 nM TaqMan probe; TaqMan Gene Expression Assays Rn00709612_ml (Tap1) or Rn00569036_ml (Ctss), Applied Biosystems), synthesizing cDNA with TaqMan Reverse Transcription Reagents (manufactured by Applied Biosystems) on an ABI PRISM 7900HT Detection System (manufactured by Applied Biosystems), and using β-actin as an internal control. […]

C=CC[C@@H]1/C=C(\C)C[C@H](C)C[C@H](OC)[C@H]2O[C@@](O)(C(=O)C(=O)N3CCCC[C@H]3C(=O)O[C@H](/C(C)=C/[C@@H]3CC[C@@H](O)[C@H](OC)C3)[C@H](C)[C@@H](O)CC1=O)[C@H](C)C[C@@H]2OC [tacrolimus]
expression levels of the gene markers Tap1 and Ctss compared with the rejection group: suppressed compared with the rejection group, to the level similar to or lower than that of the non-rejection group
